Reference: US20260070922A1, “PYRAZOLE AND IMIDAZOLE DERIVATIVES AS DUAL OREXIN AND KAPPA-OPIOID RECEPTORS MODULATORS COMPOSITION, METHODS FOR TREATING NEUROLOGICAL AND PSYCHIATRIC DISORDERS” (HAGER BIOSCIENCES, LLC, priority 2022, published 2026)

Experiments:
[1] = target: T1, human orexin-2 receptor (OX2R) (Homo sapiens, UniProt O43614); test: In vitro orexin antagonism assay: intracellular calcium measurement (FLIPR), orexin-A 3 nM as agonist; format: cell-based; conditions: for inhibition at 1 µM: read-out: OX2R, % Inh. @ 1 uM; for IC50: first value of IC50/Kb cell; for Kb: second value of IC50/Kb cell
T1 construct: expressed in transfected cells; host or cells: CHO cells (G418 selection)
T1 sequence (O43614 1-444): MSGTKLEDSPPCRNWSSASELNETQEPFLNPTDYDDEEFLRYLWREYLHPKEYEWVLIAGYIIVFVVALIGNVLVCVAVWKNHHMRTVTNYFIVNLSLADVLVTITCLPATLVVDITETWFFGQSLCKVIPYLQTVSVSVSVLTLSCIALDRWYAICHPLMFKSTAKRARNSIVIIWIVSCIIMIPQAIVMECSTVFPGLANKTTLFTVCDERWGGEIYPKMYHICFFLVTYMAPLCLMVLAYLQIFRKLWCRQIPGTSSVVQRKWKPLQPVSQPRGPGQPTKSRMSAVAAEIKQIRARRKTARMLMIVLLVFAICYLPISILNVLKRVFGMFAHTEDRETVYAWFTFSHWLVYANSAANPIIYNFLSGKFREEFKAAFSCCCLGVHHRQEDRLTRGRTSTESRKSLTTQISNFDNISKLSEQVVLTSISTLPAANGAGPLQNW
Summary of the method: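 Fluorescence peak on 3 nM orexin-A challenge, read by FLIPR and compared with vehicle, yields IC50 (geometric mean when repeated; may be normalized to an on-plate reference). Antagonists were added 120 min beforehand to fluo-4-loaded recombinant CHO cells expressing human OX1R or OX2R.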

[2] = target: T2, human k-opioid receptor (kOR) (Homo sapiens, UniProt P41145); test: Human k-opioid (KOP) receptor (agonist radioligand [3H]U-69593) binding assay, transfected RBL cell membranes; conditions: for IC50: first value of IC50/Ki cell; for inhibition at 1 µM: read-out: KOR % Inh. @ 1 uM; for Ki: second value of IC50/Ki cell
T2 construct: expressed in transfected cells; host or cells: RBL cells (membrane homogenates)
Summary of the method: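 Membranes from transfected RBL cells (~80 μg protein) incubated 60 min at 22° C with 0.5 nM [3H]U-69593 in 50 mM Tris-HCl pH 7.4, 10 mM MgCl2, 1 mM EDTA. Nonspecific binding defined with 10 μM naloxone; filtration and scintillation counting. Values are percent inhibition of specific radioligand binding.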

[3] = target: T3, Orexin type 1 (OX1R) receptor (Homo sapiens, UniProt O43613); test: In vitro orexin antagonism assay: intracellular calcium measurement (FLIPR), orexin-A 3 nM as agonist; format: cell-based; conditions: for IC50: first value of IC50/Kb cell; for inhibition at 1 µM: read-out: OX1R, % Inh. @ 1 uM; for Kb: second value of IC50/Kb cell
T3 construct: expressed in transfected cells; host or cells: CHO cells (G418 selection)
T3 sequence (O43613 1-425): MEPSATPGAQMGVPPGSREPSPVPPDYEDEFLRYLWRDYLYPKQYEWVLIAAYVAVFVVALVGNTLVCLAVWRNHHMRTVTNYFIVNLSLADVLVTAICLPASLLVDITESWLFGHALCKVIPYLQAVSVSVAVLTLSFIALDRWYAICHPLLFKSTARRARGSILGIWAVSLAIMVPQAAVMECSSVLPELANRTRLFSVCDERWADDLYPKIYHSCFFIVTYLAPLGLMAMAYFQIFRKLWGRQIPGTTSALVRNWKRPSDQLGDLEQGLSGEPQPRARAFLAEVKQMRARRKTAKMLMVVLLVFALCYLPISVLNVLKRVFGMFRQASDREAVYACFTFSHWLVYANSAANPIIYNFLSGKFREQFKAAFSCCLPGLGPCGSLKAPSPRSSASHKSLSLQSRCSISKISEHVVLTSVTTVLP
Summary of the method: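 CHO cells expressing the human orexin receptor were loaded with 3 μM fluo-4 AM plus 5 mM probenecid, then exposed to antagonist for 120 min before 3 nM orexin-A (final) was added on a FLIPR.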

[4] = target: T2, human k-opioid receptor (kOR); test: Human k-opioid (KOP) receptor (agonist radioligand [3H]U-69593) binding assay, transfected RBL cell membranes; conditions: second value of IC50/Ki cell

T2 sequence (P41145 whole entry): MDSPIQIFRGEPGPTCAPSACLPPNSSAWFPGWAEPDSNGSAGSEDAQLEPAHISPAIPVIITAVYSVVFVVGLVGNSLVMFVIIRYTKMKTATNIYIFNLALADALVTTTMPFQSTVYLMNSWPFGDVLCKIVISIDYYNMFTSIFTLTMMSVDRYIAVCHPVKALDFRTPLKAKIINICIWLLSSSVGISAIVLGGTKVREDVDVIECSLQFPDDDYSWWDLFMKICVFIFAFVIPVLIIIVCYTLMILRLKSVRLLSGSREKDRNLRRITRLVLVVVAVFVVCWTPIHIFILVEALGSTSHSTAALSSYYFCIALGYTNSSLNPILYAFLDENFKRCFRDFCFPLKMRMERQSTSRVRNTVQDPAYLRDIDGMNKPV

| SMILES | inhibition at 1 µM [1] | IC50 [2] | inhibition at 1 µM [2] | IC50 [3] | inhibition at 1 µM [3] | Kb [3] | Ki [4] | IC50 [1] | Kb [1] | OX2R, % Inh. @ 1 uM [1] | KOR % Inh. @ 1 uM [2] | Ki [2] | OX1R, % Inh. @ 1 uM [3] |
| --- | --- | --- | --- | --- | --- | --- | --- | --- | --- | --- | --- | --- | --- |
| O=C(c1c(-c2ccccc2)nc2ccc(F)cn12)N1CCC[C@H]1Cn1ccc(-c2ccc(F)cc2)n1 [Example 49] | 79.3% | 47 nM | 92% | 9 nM | 102% | 2 nM | 25 nM | 52 nM | 7 nM |  |  |  |  |
| O=C(c1c(-c2ccccc2)nn2ccccc12)N1CCC[C@H]1COc1ccc(C(F)(F)F)cn1 [Example 20] |  | 3500 nM | 33% |  |  |  | 1910 nM |  |  |  |  |  |  |
| O=C(c1c(-c2ccccc2)nn2ccccc12)N1CCC[C@H]1CNc1ccc(C(F)(F)F)cn1 [Example 10] |  | 6130 nM | 26% | 4 nM |  | 1 nM | 3340 nM |  |  |  |  |  |  |
| O=C(c1c(-c2ccccc2)nc2ccc(F)cn12)N1[C@H](Cn2ccc(-c3ccc(F)cc3)n2)C[C@@H]2C[C@@H]21 [Example 97] | 37% | 80 nM | 91% | 160 nM | 70% | 33 nM | 44 nM |  |  |  |  |  |  |
| C[C@@H]1CCCN(C(=O)c2c(-c3ccc(F)cc3)nn3ccccc23)[C@@H]1CNc1ccc(C(F)(F)F)cn1 [Example 40] | 7.1% | 740 nM | 59% | 29 nM | 98.4% | 6 nM | 400 nM |  |  |  |  |  |  |
| CCc1cnc(NC[C@@H]2[C@H](C)CCCN2C(=O)c2c(-c3ccccc3)nn3ccccc23)nc1 [Example 4] |  | 1560 nM | 52% |  |  |  | 854 nM |  |  |  |  |  |  |
| O=C(c1c(-c2ccccc2)nn2c1COCC2)N1CCC[C@H]1Cn1ccc(-c2ccc(F)cc2)n1 [Example 57] |  | 440 nM |  | 65 nM |  | 14 nM |  | 773 nM | 107 nM | 52% | 76% | 240 nM | 73% |
| O=C(c1nc2ccccn2c1-c1ccccn1)N1CCC[C@H]1Cn1cc(-c2ccccn2)cn1 [Example 181] | 39% |  | 0% | 40 nM | 91% | 9 nM |  |  |  |  |  |  |  |
| O=C(c1nn2cccnc2c1-c1ccccn1)N1CCC[C@H]1Cn1cc(-c2ccc(F)cn2)cn1 [Example 194] | 82% |  | 0% |  | 89% |  |  | 180 nM | 31 nM |  |  |  |  |
| O=C(c1nc2ccccn2c1-c1ccccc1)N1CCC[C@H]1Cc1nc(-c2ccccn2)no1 [Example 128] | 17% |  | 19% | 7 nM | 100% | 1 nM |  |  |  |  |  |  |  |
| C[C@@]1(COc2ccc(C(F)(F)F)cn2)CCCN1C(=O)c1c(-c2ccccc2)nn2ccccc12 [Example 151] | 34% |  | 7% | 90 nM | 99% | 19 nM |  |  |  |  |  |  |  |
| O=C(c1c(-c2ccccc2)nn2ccccc12)N1CCC[C@H]1Cn1ccc(-c2ccc(F)cc2)n1 [Example 59] |  | 470 nM |  | 4 nM |  | 0.7 nM |  | 11 nM | 2 nM | 99% | 56% | 260 nM | 91% |
| O=C(c1nc2ccccn2c1-c1ccccn1)N1CCC[C@H]1Cn1cc(-c2ccc(F)cn2)cn1 [Example 208] | 52% |  | 0% | 39 nM | 100% | 8 nM |  |  |  |  |  |  |  |
| C[C@@H]1CCCN(C(=O)c2c(-c3ccccc3)nn3c2COCC3)[C@@H]1CNc1ccc(C(F)(F)F)cn1 [Example 7] |  | 1470 nM | 35% |  |  |  | 799 nM |  |  |  |  |  |  |
| C[C@@]1(COc2ccc(C(F)(F)F)cn2)CCCN1C(=O)c1c(-c2ccccn2)nn2ccccc12 [Example 147] | 25% |  | 2% | 43 nM | 100% | 9 nM |  |  |  |  |  |  |  |
| O=C(c1c(-c2ccccc2F)nn2ccccc12)N1CCC[C@H]1Cn1ccc(-c2ccc(F)cc2)n1 [Example 63] |  | 280000 nM |  | 4 nM |  | 0.8 nM |  | 6 nM | 0.9 nM | 100% | 75% |  | 98% |
| C[C@@]1(COc2ccc(C(F)(F)F)cn2)CCCN1C(=O)c1nn2ccccc2c1-c1ccccc1 [Example 143] | 31% |  | 3% | 210 nM | 98% | 45 nM |  |  |  |  |  |  |  |

Further lines, with some results ahead:

| inhibition at 1 µM [1] | IC50 [2] | inhibition at 1 µM [2] | IC50 [3] | inhibition at 1 µM [3] | Kb [3] | Ki [4] | IC50 [1] | Kb [1] | SMILES | OX2R, % Inh. @ 1 uM [1] | KOR % Inh. @ 1 uM [2] | Ki [2] | OX1R, % Inh. @ 1 uM [3] |
| --- | --- | --- | --- | --- | --- | --- | --- | --- | --- | --- | --- | --- | --- |
| 50% | 180 nM | 87% | 95 nM | 91% | 20 nM | 99 nM |  |  | O=C(c1c(-c2ccccc2F)nn2ccccc12)N1[C@H](Cn2ccc(-c3ccc(F)cc3)n2)C[C@@H]2C[C@@H]21 [Example 95] |  |  |  |  |
| 86% | 190 nM | 76% | 9 nM | 100% | 2 nM | 100 nM | 23 nM | 4 nM | O=C(c1c(-c2ccccc2F)nn2ccccc12)N1CCC[C@H]1Cn1cc(-c2ccccc2)cn1 [Example 69] |  |  |  |  |
| 98.5% | 1010 nM | 56% |  |  |  | 549 nM |  | 10 nM | O=C(c1c(-c2ccccc2)nn2ccccc12)N1CCC[C@H]1Cn1ccc(-c2ccccc2)n1 [Example 13] |  |  |  |  |
| 50% |  | 6% | 23 nM | 97% | 5 nM |  |  |  | O=C(c1c(-c2ccccn2)nn2ccccc12)N1CCC[C@H]1Cc1nc(-c2ccccn2)no1 [Example 156] |  |  |  |  |
| 37% |  | 6% | 5 nM | 100% | 1 nM |  |  |  | O=C(c1nc2ccccn2c1-c1ccccc1)N1CCC[C@H]1Cn1ccc(-c2ccccn2)n1 [Example 119] |  |  |  |  |
| 38% |  | 51% | 650 nM | 60% | 140 nM |  |  |  | O=C(c1nn2ccccc2c1-c1ccccc1)N1CC[C@H]1Cn1ccc(-c2ccc(F)cn2)n1 [Example 115] |  |  |  |  |
| 79% |  | 21% | 14 nM | 100% | 3 nM |  | 43 nM | 8 nM | O=C(c1nn2ccccc2c1-c1ccccc1)N1CCC[C@H]1Cn1ccc(-c2ccc(F)cn2)n1 [Example 111] |  |  |  |  |
| 74% |  | 27% | 13 nM | 100% | 3 nM |  | 20 nM | 4 nM | O=C(c1c(-c2ccccc2F)nn2ccccc12)N1CCC[C@H]1Cn1ccc(-c2ccccn2)n1 [Example 67] |  |  |  |  |
| 91% |  | 27% | 4 nM | 100% | 1 nM |  | 68 nM | 12 nM | O=C(c1c(-c2ncccn2)nn2ccccc12)N1CCC[C@H]1Cn1ccc(-c2ccccc2)n1 [Example 131] |  |  |  |  |
| 52% |  | 9% | 5 nM | 99% | 1 nM |  | 490 nM | 85 nM | O=C(c1nn2cccnc2c1-c1ccccc1)N1CCC[C@H]1Cn1ccc(-c2ccccn2)n1 [Example 137] |  |  |  |  |
| 11% |  | 16% | 340 nM | 97% | 72 nM |  |  |  | C[C@@]1(Cn2ccc(-c3ccccn3)n2)CCCN1C(=O)c1nn2ccccc2c1-c1ccccc1 [Example 150] |  |  |  |  |
